Results reported in patent publication US8003645B2, “Preventives or remedies for Alzheimer's disease, or amyloid protein fibril-formation inhibitors, which include a nitrogen-containing heteroaryl compound” (BTG International Ltd., priority 2001, dated 2011).

Tests used:
[1] = target: fibrillar Aβ1-42 (Homo sapiens, UniProt P05067); assay: Fibrillar Aβ breakdown action, thioflavin binding assay; type: biochemical; settings: for fibrillar breakdown action (fluorescent intensity %): Aβ1-42 25 μM incubated 2 or 3 days at 37° C., then compound 100 μg/mL, further 2 days, Aβ1-42 alone taken as 100; for fibrillar Aβ breakdown action (result in words): compound added after fibril formation, thioflavin fluorescence
Procedure: (§1) The Aβ fibril-formation inhibiting action and fibrillar Aβ breakdown action were evaluated using the thioflavin binding assay method. The details of the test method are based on the method described in J. Biol. Chem. Vol. 274, 25945-25952 (1999).
In the measurement of the fibrillar Aβ breakdown action, the concentration of the Aβ1-42 was 25 μM and the concentration of the compound synthesized in Production Example 4 or Production Example 12 was 100 μg/mL in each case. After incubating the Aβ1-42 for 2 days or 3 days at 37° C., the compound synthesized in Production Example 4 or Production Example 12 was or was not added, and then further incubation performed for 2 days, after which measurement of the fibrillar Aβ breakdown action was performed.
(§2) The measurements of the Aβ fibril-formation inhibiting action and of the fibrillar Aβ breakdown action were carried out by placing a 100 μL sample obtained by pretreatment as described above, plus 800 μL of distilled water, 1 mL of glycine (100 mM) and 50 μL of thioflavin (100 μM) in a cuvette, and measuring the fluorescence at an excitation wavelength of 435 nm and a fluorescence wavelength of 490 nm.
(§3) The figures in the table show the calculated percentages taking the fluorescent intensity obtained when the fluorescence of the sample obtained by incubating Aβ1-42 (25 μM) alone by the above method, and measured at an excitation wavelength of 435 nm and a fluorescence wavelength of 490 nm, was taken as 100. The figures are in the form of the average value ±standard deviation, for the three to nine averages obtained in three to nine tests. […] “Aβ” is for the Aβ1-42.

[2] = target: Aβ1-42 (Homo sapiens, UniProt P05067); assay: Aβ fibril-formation inhibiting action, thioflavin binding assay; type: biochemical; settings: for activity at 100 µg/mL: Aβ1-42 25 μM + compound 100 μg/mL, incubation 2 days at 37° C., Aβ1-42 alone taken as 100, read-out: fibril-formation inhibiting action (fluorescent intensity %); for Aβ fibril-formation (result in words): compound added prior to fibril formation, thioflavin fluorescence
Procedure: as §1
In the measurement of the inhibition of Aβ fibril-formation, the concentration of the Aβ1-42 was 25 μM and the concentration of the compound synthesized in Production Example 4 or Production Example 12 was 100 μg/mL in each case. The measurement of the Aβ fibril-formation inhibiting action was carried out following incubation for 2 days at 37° C. of the Aβ1-42 alone and of the Aβ1-42 to which the compound synthesized in Production Example 4 or Production Example 12 had been added.
as §2, §3

[3] = tested on: acute sections from the hippocampus; assay: Suppression of Aβ1-42-induced long-term potentiation impairment (fEPSP slope) in acute hippocampal sections; type: cell-based, Wistar rats
Procedure: The method for testing the suppression of the impairment of long-term potentiation was based on that described in J. Neurosci. Vol. 20, 2003-10 (2000). That is to say, acute^i sections of thickness 400 μm were prepared from the hippocampus of the brains of 3-4 week old male Wistar rats. These acute sections were immersed in artificial cerebrospinal fluid in which β-amyloid protein (Aβ1-42: produced by the Sigma Chemical Co.) and compound from Production Examples 1 or 12 had been dissolved, and pretreatment carried out for 5 hours.
In the measurement using the compound from Production Example 1, the concentration of the Aβ1-42 in the artificial cerebrospinal fluid was 500 nM and the concentration of the compound from Production Example 1 was 1 μg/mL. In the measurement using the compound from Production Example 12, the concentration of the Aβ1-42 in the artificial cerebrospinal fluid was 1 μM and the concentration of the compound from Production Example 12 was 3 μg/mL. Now, the Aβ1-42 was used after coagulation of the amyloid by leaving overnight.
100 pulses of high frequency stimulation at 100 Hz were applied to the pretreated acute sections, and the field excitatory postsynaptic potential: fEPSP) measured by an extracellular recording method.
The fEPSP was measured at 30 second intervals following application of the high frequency stimulation and the fEPSP slope (units [%]) measured. The average values of the slope over 0-20 minutes, 20-40 minutes and 40-60 minutes were determined. This test was repeated five times over. In the table, the figures are the average values ±standard deviation for the five averages obtained in the five tests. […] “Aβ” denotes the Aβ1-42.
As controls, measurements were made of the fEPSP [mV] under the same conditions for acute sections pretreated with the artificial cerebrospinal fluid alone, acute sections pretreated with the artificial cerebrospinal fluid in which Aβ1-42 had been dissolved, and acute sections pretreated with artificial cerebrospinal fluid in which only the compound from Production Example 1 or 12 had been dissolved, and then the average value of the fEPSP slope [%] obtained.

[4] = tested on: HeLa cells; assay: Action in inhibiting the lowering of MTT reduction capacity by Aβ1-40; type: cell-based; settings: Homo sapiens; HeLa cells, Aβ1-40 (100 nM); read-out: IC50 (action in inhibiting the lowering of the MTT reduction capacity by Aβ1-40)
Procedure: The HeLa cells employed were purchased from the Dainippon Pharmaceutical Co.
The HeLa cells were seeded by suspension in MEM (Minimum essential medium; produced by the Sigma Chemical Co.) containing 10% inactivated FBS (foetal bovine serum) such that there were 1,000 per well in a 96-well microplate, and then culturing was carried out overnight in an incubator at 37° C. in the presence of 5% CO2.
The test compound was dissolved in dimethyl sulphoxide (DMSO) and diluted with the MEM medium so that the final concentration of DMSO was no more than 0.1 wt %, and added to the cells seeded the previous day. […] Overnight culturing was carried out using an incubator at 37° C. in the presence of 5% CO2, with 100 μL/well of MEM medium containing 5% deactivated FBS.
Now, prior to use, the Aβ1-40 had been dissolved in buffer and left overnight so that the amyloid coagulated.
In order to determine the percentage inhibition of the test compound, cells alone, cells where Aβ1-40 had been added, and cells where only the test compound had been added, were also incubated overnight under the same conditions.
The following day, there was added 10 μL/well of MTT [3-(4,5-dimethylthiazol-2-yl)-2,5-diphenyltetrazolium bromide: produced by Wako Pure Chemical Industries] prepared at a concentration of 5 mg/mL with phosphate buffered saline (PBS), and incubation carried out for 2 hours at 37° C. in the presence of 5% CO2. The medium was then eliminated and the formazan dye produced measured […] (A570 nm-A650 nm) using a Microplate Reader (produced by the Molecular Devices Co.), by dissolving with the addition of 100 μL per well of isopropanol. In this way, the change in the MTT reduction capacity of the HeLa cells was measured.
The percentage inhibition (%) by the test compound was determined from the following formula. inhibition (%) [[…]/(a−c)]×100 where • a=MTT reduction capacity when untreated • b=MTT reduction capacity when Aβ1-40 and the test compound are added • c=MTT reduction capacity when only Aβ1-40 is added

[5] = Test 2, Aβ1-42 (1 μM) + compound 3 μg/mL
[6] = Test 2, compound alone 3 μg/mL, no Aβ

Sequence of Aβ1-42 (P05067 672-713): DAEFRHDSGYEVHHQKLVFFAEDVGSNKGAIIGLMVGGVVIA
Sequence of fibrillar Aβ1-42 (P05067 672-713): as above

Row | SMILES | fibrillar breakdown action (fluorescent intensity %) [1] | fibrillar Aβ breakdown action (result in words) [1] | activity at 100 µg/mL [2] | Aβ fibril-formation (result in words) [2] | Value of fEPSP Slope [%] 0-20 minutes [3, 5] | Value of fEPSP Slope [%] 20-40 minutes [3, 5] | Value of fEPSP Slope [%] 40-60 minutes [3, 5] | Value of fEPSP Slope [%] 0-20 minutes [3, 6] | Value of fEPSP Slope [%] 20-40 minutes [3, 6] | Value of fEPSP Slope [%] 40-60 minutes [3, 6] | effect of compound on its own on LTP (result in words) ([3]; compound alone, no Aβ) | impairment of the LTP due to Aβ1-42 (result in words) ([3]; pretreating 5 hours with Aβ1-42 together with the compound) | IC50 [4]
1 | Oc1cccc(Nc2ccc(Nc3cccc(O)c3)nn2)c1 [Production Example 12, N,N′-bis(3-hydroxyphenyl)pyridazine-3,6-diamine] | 28.49 ± 5.17% | there was a fibrillar Aβ breakdown action | 1.69 ± 1.32% | Aβ fibril-formation was inhibited | 161.7 ± 2.6% | 148.1 ± 3.1% | 146.2 ± 4.6% | 175.3 ± 7.4% | 162.9 ± 9.8% | 160.8 ± 10.3% | inactive on its own | suppressed | –
2 | Cc1nc(Nc2cccc(O)c2)cc(Nc2cccc(O)c2)n1 [Production Example 4, 2-Methyl-N,N′-bis(3-hydroxyphenyl)pyrimidine-4,6-diamine] | 30.63 ± 1.26% | there was a fibrillar Aβ breakdown action | 16.3 ± 5.3% | Aβ fibril-formation was inhibited | – | – | – | – | – | – | – | – | 6 µM
